# In paper PMC4805166, “Synthetic Cyclolipopeptides Selective against Microbial, Plant and Animal Cell Targets by Incorporation of D-Amino Acids or Histidine” (PLoS ONE, 2016):
# Where “and” joins values, the source holds several entries; their conditions need not be identical. Equal entries are not always repeated. Where two headings read alike, the source gives them in different places. Where a SMILES comes first, the peptide text is derived from it. [ ]: non-standard residue; d: D form. The star is where a group is joined. Oleoyl = CCCCCCCC/C=C\CCCCCCCC(=O)*; Palmitoyl = CCCCCCCCCCCCCCCC(=O)*; Lauroyl = CCCCCCCCCCCC(=O)*; Octanoyl = CCCCCCCC(=O)*; X1 = O=C(CCCCCCCCCCCO)*; Hexanoyl = CCCCCC(=O)*; Pentanoyl = CCCCC(=O)*; Butyryl = CCCC(=O)*
# Key:
# [1] = tested on: Xanthomonas axonopodis pv. vesicatoria 2133–2; type: cell-based; settings: TSB, 25°C, 48 h, OD 600 nm; tested at 3.1, 6.2, 12.5, 25, 50 μM; three replicates, experiment repeated twice; MIC = lowest concentration with no growth
# Procedure: (§1) The following plant pathogenic bacterial strains were used: Erwinia amylovora PMV6076 (Institut National de la Recherche Agronomique, Angers, France), Pseudomonas syringae pv. syringae EPS94 (Institut de Tecnologia Agroalimentària, Universitat de Girona, Spain) and Xanthomonas axonopodis pv. vesicatoria 2133–2 (Instituto Valenciano de Investigaciones Agrarias, Valencia, Spain). All bacteria were stored in Luria Bertani (LB) broth supplemented with glycerol (20%) and maintained at -80°C. Bacteria were scrapped from LB agar after growing for 24–48 h at 25°C. The cell material was suspended in sterile water to obtain a suspension of 10^8 CFU mL^-1.
# (§2) Lyophilized peptides were solubilized in sterile Milli-Q water to a final concentration of 1 mM and filter sterilized through a 0.22-μm pore filter. For minimum inhibitory concentration (MIC) assessment, dilutions of the compounds were made to obtain a stock concentration of […]. For antibacterial activity twenty microlitres of each dilution were mixed in a microtiter plate well with 20 μL of the corresponding suspension of the bacterial indicator, 160 μL of Trypticase Soy Broth (TSB) (BioMèrieux, France) to a total volume of 200 μL. For antifungal activity 20 μL of each stock solution were mixed in a microtiter plate well with 80 μL of the corresponding suspension of the fungal pathogen and 100 μL of double concentrated PDB to a total volume of 200 μL containing 0.003% w/v of choramphenicol.
# (§3) Three replicates for each strain, compound and concentration were used. Microbial growth was determined by optical density measurement at 600 nm (Bioscreen C, Labsystem, Helsinki, Finland). For antibacterial activity microplates were incubated at 25°C with 20 sec shaking before hourly absorbance measurement for 48 h. For antifungal activity microplates were incubated at 20°C with 1 min shaking before absorbance measurement that were done every two hours during seven days. The experiment was repeated twice. The MIC was taken as the lowest compound concentration with no growth at the end of the experiment.
# [2] = tested on: Pseudomonas syringae pv. syringae EPS94; type: cell-based; settings: 48 h
# Procedure: as §1, §2, §3
# [3] = tested on: erythrocyte suspensions of horse blood; settings: horse erythrocytes 5% vol/vol, TRIS buffer pH 7.2, 1 h at 37°C, absorbance 540 nm, relative to melittin 100 μM, ± confidence interval (α = 0.05); for Hemolysis (%) 150 µM: 150 µM peptide; for Hemolysis (%) 250 µM: 250 µM peptide;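 for all read-outs here: Read-out is hemoglobin release into the supernatant, with a buffer-only blank subtracted as the 0% baseline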
# [4] = tested on: Fusarium oxysporum f. sp. lycopersici FOL 3 race 2; assay: MIC, antifungal growth inhibition; type: cell-based
# Procedure: Fusarium oxysporum f. sp. lycopersici FOL 3 race 2 (ATCC 201829, American Type Culture Collection) was used as fungal pathogen. The strain was cultured on potato dextrose agar (PDA) plates (Difco) and microconidia were obtained after growth at 25°C. The concentration of conidia was determined using a hemacytometer and adjusted to 10^4 conidia mL^-1.
# as §2, §3
# [5] = tested on: Erwinia amylovora PMV6076; assay: MIC, in vitro growth inhibition; type: cell-based; settings: TSB, 25°C, 48 h, OD 600 nm; tested at 3.1, 6.2, 12.5, 25, 50 μM; three replicates, experiment repeated twice; MIC = lowest concentration with no growth
# Procedure: as §1, §2, §3
# [6] = PDB with 0.003% chloramphenicol, 20°C, seven days, OD 600 nm, tested at 3.1, 6.2, 12.5, 25, 50 μM, three replicates, repeated twice
Molecule,MIC Xav [1],MIC Pss [2],Hemolysis (%) 150 µM [3],Hemolysis (%) 250 µM [3],"MIC Fo [4, 6]",MIC Ea [5],MIC Fo [4],"MIC Pss ([2]; TSB, 25°C, OD 600 nm, tested at 3.1, 6.2, 12.5, 25, 50 μM, three replicates, experiment repeated twice, MIC = lowest concentration with no growth)"
"CCCCCCCC(=O)NCCCC[C@@H]1NC(=O)[C@H](CCCCN)NC(=O)[C@H](CC(C)C)NC(=O)[C@H](CCCCN)NC(=O)[C@H](CCCCN)NC(=O)[C@H](CCC(N)=O)NC(=O)[C@H](CC(C)C)NC(=O)[C@H](CCCCN)NC(=O)[C@H](CCCCN)NC(=O)[C@H](Cc2ccccc2)NC1=O [BPC498, c(KKLKK(CO-C7H15)FKKLQ)] (cyclo(FKKLQKKLKK(Octanoyl)))",6.2 to 12.5 µM,12.5 to 25 µM,78 ± 4%,100 ± 12%,3.1 to 6.2 µM,25 to 50 µM,–,–
"CCCCCCCCCCCCCCCC(=O)NCCCC[C@@H]1NC(=O)[C@H](CCCCN)NC(=O)[C@H](CC(C)C)NC(=O)[C@H](CCCCN)NC(=O)[C@H](CCCCN)NC(=O)[C@H](CCC(N)=O)NC(=O)[C@H](CC(C)C)NC(=O)[C@H](CCCCN)NC(=O)[C@H](CCCCN)NC(=O)[C@H](Cc2ccccc2)NC1=O [BPC502, c(KKLKK(CO-C15H31)FKKLQ)] (cyclo(FKKLQKKLKK(Palmitoyl)))",>50 µM,>50 µM,78 ± 1%,99 ± 2%,>50 µM,>50 µM,–,–
"CC(C)C[C@@H]1NC(=O)[C@H](CCCCN)NC(=O)[C@H](CCCCN)NC(=O)[C@H](CCC(N)=O)NC(=O)[C@H](CC(C)C)NC(=O)[C@H](CCCCN)NC(=O)[C@H](CCCCN)NC(=O)[C@H](Cc2ccccc2)NC(=O)[C@H](CCCCNC(=O)CCCCCCCCCCCO)NC(=O)[C@H](CCCCN)NC1=O [BPC524, c(KKLKK(CO-C11H22OH)FKKLQ)] (cyclo(FKKLQKKLKK(X1)))",6.2 to 12.5 µM,12.5 to 25 µM,100 ± 8%,100 ± 6%,12.5 to 25 µM,25 to 50 µM,–,–
"CCCCC(=O)NCCCC[C@@H]1NC(=O)[C@H](CCCCN)NC(=O)[C@H](CC(C)C)NC(=O)[C@H](CCCCN)NC(=O)[C@H](CCCCN)NC(=O)[C@H](CCC(N)=O)NC(=O)[C@H](CC(C)C)NC(=O)[C@H](CCCCN)NC(=O)[C@H](CCCCN)NC(=O)[C@H](Cc2ccccc2)NC1=O [BPC526, c(KKLKK(CO-C4H9)FKKLQ)] (cyclo(FKKLQKKLKK(Pentanoyl)))",<3.1 µM,12.5 to 25 µM,62 ± 2%,78 ± 3%,6.2 to 12.5 µM,12.5 to 25 µM,–,–
"CCCCCCCCCCCC(=O)NCCCC[C@@H]1NC(=O)[C@H](CCCCN)NC(=O)[C@H](CC(C)C)NC(=O)[C@H](CCCCN)NC(=O)[C@H](CCCCN)NC(=O)[C@H](CCC(N)=O)NC(=O)[C@H](CC(C)C)NC(=O)[C@H](CCCCN)NC(=O)[C@H](CCCCN)NC(=O)[C@H](Cc2ccccc2)NC1=O [BPC530, c(KKLKK(CO-C11H23)FKKLQ)] (cyclo(FKKLQKKLKK(Lauroyl)))",6.2 to 12.5 µM,12.5 to 25 µM,89 ± 7%,91 ± 9%,6.2 to 12.5 µM,12.5 to 25 µM,–,–
CCCCCC(=O)NCCCC[C@@H]1NC(=O)[C@H](CCCCN)NC(=O)[C@H](Cc2ccccc2)NC(=O)[C@H](CCCCN)NC(=O)[C@H](CCCCN)NC(=O)[C@H](CC(C)C)NC(=O)[C@H](CCCCN)NC(=O)[C@H](CCCCN)NC(=O)[C@H](CCC(N)=O)NC(=O)[C@H](CC(C)C)NC1=O [BPC582] (cyclo(FKK(Hexanoyl)LQKKLKK)),6.2 to 12.5 µM,6.2 to 12.5 µM,92 ± 3%,96 ± 10%,12.5 to 25 µM,12.5 to 25 µM,–,–
"CCCCCC(=O)NCCCC[C@@H]1NC(=O)[C@H](Cc2ccccc2)NC(=O)[C@H](CCCCN)NC(=O)[C@H](CCCCN)NC(=O)[C@H](CC(C)C)NC(=O)[C@H](CCCCN)NC(=O)[C@H](CCCCN)NC(=O)[C@H](CCC(N)=O)NC(=O)[C@H](CC(C)C)NC(=O)[C@H](CCCCN)NC1=O [BPC584, c(KKLKKFK(CO-nC5H11)KLQ)] (cyclo(FK(Hexanoyl)KLQKKLKK))",6.2 to 12.5 µM,12.5 to 25 µM,72 ± 5%,97 ± 12%,25 to 50 µM,25 to 50 µM,–,–
"CCCCCC(=O)NCCCC[C@@H]1NC(=O)[C@H](CC(C)C)NC(=O)[C@H](CCCCN)NC(=O)[C@H](CCCCN)NC(=O)[C@H](CCC(N)=O)NC(=O)[C@H](CC(C)C)NC(=O)[C@H](CCCCN)NC(=O)[C@H](CCCCN)NC(=O)[C@H](Cc2ccccc2)NC(=O)[C@H](CCCCN)NC1=O [BPC586, c(KKLK(CO-nC5H11)KFKKLQ)] (cyclo(FKKLQKKLK(Hexanoyl)K))",6.2 to 12.5 µM,6.2 to 12.5 µM,92 ± 9%,95 ± 20%,12.5 to 25 µM,12.5 to 25 µM,–,–
"CCCCCCCC/C=C\CCCCCCCC(=O)NCCCC[C@@H]1NC(=O)[C@H](CCCCN)NC(=O)[C@H](CC(C)C)NC(=O)[C@H](CCCCN)NC(=O)[C@H](CCCCN)NC(=O)[C@H](CCC(N)=O)NC(=O)[C@H](CC(C)C)NC(=O)[C@H](CCCCN)NC(=O)[C@H](CCCCN)NC(=O)[C@H](Cc2ccccc2)NC1=O [BPC622, c(KKLKK(CO-C17H33)FKKLQ)] (cyclo(FKKLQKKLKK(Oleoyl)))",3.1 to 6.2 µM,25 to 50 µM,91 ± 2%,97 ± 3%,>50 µM,>50 µM,–,–
"CCCC(=O)NCCCC[C@H]1NC(=O)[C@H](CCCCN)NC(=O)[C@H](CC(C)C)NC(=O)[C@H](CCCCN)NC(=O)[C@H](CCCCN)NC(=O)[C@H](CCC(N)=O)NC(=O)[C@H](CC(C)C)NC(=O)[C@H](CCCCN)NC(=O)[C@H](CCCCN)NC(=O)[C@H](Cc2ccccc2)NC1=O [BPC702, c(KKLKk(CO-C3H7)FKKLQ)] (cyclo(FKKLQKKLK[dK](Butyryl)))",–,–,1 ± 0.1%,–,< 12.5 µM and 3.1 to 6.2 µM,25 to 50 µM,3.1 to 6.2 µM,–
c(KKLKK(CO-C6H13)FKKLQ) [BPC592],6.2 to 12.5 µM,–,–,–,12.5 to 25 µM,25 to 50 µM,–,12.5 to 25 µM
